Several values for one entry are separate records, joined by “and”; a condition that tells them apart may be missing. Equal entries are not always repeated. Where two headings read alike, the source gives them in different places. Positions of bridges follow the written chain, without caps; N, C: chain ends. Residues, ends and D or L forms follow the SMILES beside them.
Legend:
A. veronii X-1-06909 = experiment: microbe, parasite or virus in culture; type: cell-based
Source text: (§1) All experiments were repeated three times.

[1] = system: Candida albicans CMCC98001; experiment: microbe, parasite or virus in culture; type: cell-based
Source text: as §1

E. coli CVCC1515 = experiment: microbe, parasite or virus in culture; type: cell-based
Source text: as §1

E. coli CVCC25922 = experiment: microbe, parasite or virus in culture; type: cell-based
Source text: as §1

Escherichia coli CVCC195 = experiment: microbe, parasite or virus in culture; type: cell-based
Source text: as §1

S. enteritidis CVCC3377 = experiment: microbe, parasite or virus in culture; type: cell-based
Source text: as §1

S. pullorum CVCC1789 = experiment: microbe, parasite or virus in culture; type: cell-based
Source text: as §1

S. pullorum CVCC1809 = experiment: microbe, parasite or virus in culture; type: cell-based
Source text: as §1

S. pullorum CVCC533 = experiment: microbe, parasite or virus in culture; type: cell-based
Source text: as §1

[2] = system: Staphylococcus aureus ATCC43300; experiment: microbe, parasite or virus in culture; type: cell-based; details: Staphylococcus aureus ATCC43300, broth dilution, 37 °C, 16–18 h, three experiments
Source text: as §1

E. coli CVCCO157 = experiment: MIC, microtiter broth dilution; type: cell-based; details: 37 °C, 16–18 h, three experiments
Source text: as §1

A. veronii ACCC61732 [3] = experiment: Time-killing curves; type: cell-based; details: 2× MIC; 1 × 10^5 CFU/mL, colony counting, 0–24 h
Experimental: Time-killing curves were performed as previously described. […] The sample of 100 μL was taken from each flask at 0, 0.5, 1, 2, 4, 6, 8, 10, 20, and 24 h, respectively, and serially diluted for colony counting. PBS and CIP were used as the negative and positive control, respectively.

A. veronii ACCC61732 [4] = experiment: microbe, parasite or virus in culture; type: cell-based; details: Aeromonas veronii, ACCC61732, read-out: MICa, MIC of the antibiotic used alone
Source text: The checkerboard microtiter assay was used to determine the combinations of peptides with different antibiotics (including quinolone, rifamycin, peptide antibiotics, aminoglycoside, tetracycline, and chloramphenicol). […] The fractional inhibitory concentration (FIC) was used to calculate the combination effects using the following formula: FIC index (FICI) = MIC(peptide in combination)/MIC(peptide alone) + MIC(antibiotic in combination)/MIC(antibiotic alone). FICI ≤ 0.5 means synergistic, 0.5 < FICI ≤ 1 means additive action, 1 < FICI ≤ 4 means indifference, and FICI > 4 means antagonism.

A. veronii ACCC61732 [5] = experiment: Post-antibiotic effect (PAE); type: cell-based; details: for PAE: 2 h exposure, 1000-fold dilution, 37 °C, triplicate
Experimental: The samples were taken from flasks for counting each hour until bacterial cultures became turbid. The untreated bacteria severed as controls. The PAE was calculated using the following equation: PAE = T − C, where T is the time (h) required for the CFU in the test culture to increase by 10-fold from the count immediately after the drug removal and C is the corresponding time (h) for the control. The experiment was performed in triplicate.

A. veronii ACCC61732 [6] = experiment: Resistance development, 30 serial passages; type: cell-based; details: A. veronii ACCC61732, 30 passages (30 days)
Experimental: The development of bacterial resistance of peptides was performed by the MIC assays. […] GEN, CIP, and PMB were used as controls. […] The MIC values were measured as described above. The serial passaging was repeated for 30 days.

[7] = system: A. veronii ACCC61732 mature biofilms; experiment: Eradication of mature biofilms, crystal violet; type: cell-based; details: 16× MIC, 24 h on 24 h biofilm
Experimental: A. veronii ACCC61732 cells (1 × 10^8 CFU/mL) were cultured in TSB medium in the 96-well plates at 37 °C for 24 h.

[8] = system: A. veronii ACCC61732 in biofilm; type: cell-based; details: 2 h
Experimental: The mid-log phase A. veronii ACCC61732 cells (1 × 10^8 CFU/mL) were inoculated into in the 96-well plates and cultured for 24 h at 37 °C. The plates were washed twice with PBS. […] PBS was used as the negative control. The plates were treated with ultrasound for 5 min and the viable bacteria were counted on the TSA plates.

MDR A. veronii ACCC61732 = experiment: Mouse peritonitis model, survival; type: in vivo, ICR mice; details: seven days, six mice
Experimental: […]. The mice injected with only bacteria or saline served as the negative and blank control. The mouse survival was recorded daily for seven days.

A. veronii ACCC61732 [9] = experiment: Inner membrane permeability, PI staining, flow cytometry; type: cell-based
Experimental: To analyze effects of peptides on the inner membrane, A. veronii ACCC61732 cells were cultured to mid-log phase at 37 °C in MHB medium, washed thrice with PBS, and resuspended in the PBS buffer to 1 × 10^8 CFU/mL. […] After fixation with PI, the samples were detected by a fluorescent inverted microscope and FACS Calibur Flow Cytometer (BD, San Jose, CA, USA), respectively. Cell Quest Pro software (BD, San Jose, CA, USA) was used for the data analysis.

[10] = Escherichia coli CVCC195, broth dilution, 37 °C, 16–18 h, three experiments, read-out: MIC

O=C(O)c1cn(C2CC2)c2cc(N3CCNCC3)c(F)cc2c1=O [CIP, ciprofloxacin, reference compound]
MIC (A. veronii X-1-06909; Aeromonas veronii, X106909, A. veronii X-1-06909, broth dilution, 37 °C, 16–18 h, three experiments, read-out: MIC): 0.25 µg/mL and 0.75 µM | MIC ([1]; Candida albicans CMCC98001, broth dilution, 37 °C, 16–18 h, three experiments, read-out: MIC): > 386 µM | MIC ([1]; Candida albicans, CMCC98001): > 128 µg/mL | MIC (E. coli CVCC1515; Escherichia coli, CVCC1515): < 0.0625 µg/mL | MIC (E. coli CVCC1515; Escherichia coli, E. coli CVCC1515, broth dilution, 37 °C, 16–18 h, three experiments, read-out: MIC): < 0.19 µM | MIC (E. coli CVCC25922; Escherichia coli, CVCC25922): < 0.0625 µg/mL | MIC (E. coli CVCC25922; Escherichia coli, E. coli CVCC25922, broth dilution, 37 °C, 16–18 h, three experiments, read-out: MIC): < 0.19 µM | MIC (Escherichia coli CVCC195; [10]): < 0.19 µM | MIC (Escherichia coli CVCC195; Escherichia coli, CVCC195): < 0.0625 µg/mL | MIC (S. enteritidis CVCC3377; Salmonella enterica, ENTERITIDIS): < 0.0625 µg/mL | MIC (S. enteritidis CVCC3377; Salmonella enterica, S. enteritidis CVCC3377, broth dilution, 37 °C, 16–18 h, three experiments, read-out: MIC): < 0.19 µM | MIC (S. pullorum CVCC1789; Salmonella enterica, PULLORUM): < 0.0625 µg/mL | MIC (S. pullorum CVCC1789; Salmonella enterica, S. pullorum CVCC1789, broth dilution, 37 °C, 16–18 h, three experiments, read-out: MIC): < 0.19 µM | MIC (S. pullorum CVCC1809; Salmonella enterica, PULLORUM): < 0.0625 µg/mL | MIC (S. pullorum CVCC1809; Salmonella enterica, S. pullorum CVCC1809, broth dilution, 37 °C, 16–18 h, three experiments, read-out: MIC): < 0.19 µM | MIC (S. pullorum CVCC533; Salmonella enterica, PULLORUM): < 0.0625 µg/mL | MIC (S. pullorum CVCC533; Salmonella enterica, S. pullorum CVCC533, broth dilution, 37 °C, 16–18 h, three experiments, read-out: MIC): < 0.19 µM | MIC ([2]; read-out: MIC): 0.25 µg/mL and 0.75 µM | MIC (E. coli CVCCO157; Escherichia coli, read-out: MIC): < 0.0625 µg/mL and < 0.19 µM | time to completely kill A. veronii ACCC61732 (A. veronii ACCC61732 [3]): started to regrow after 2 h | MIC (A. veronii ACCC61732 [4]): 0.125 µg/mL | PAE (A. veronii ACCC61732 [5]; 1× MIC): 0.6 ± 0.01 h | PAE (A. veronii ACCC61732 [5]; 2× MIC): 0.63 ± 0.1 h | PAE (A. veronii ACCC61732 [5]; 4× MIC): 0.67 h and 0.67 ± 0.02 h | increase of MIC after 30 serial passages (A. veronii ACCC61732 [6]): 15 fold | inhibition of mature biofilms [7]: 89.87% | bacteria in biofilm killed ([8]; 8× MIC, 37 °C, colony counting): 47.46% | bacteria in biofilm killed ([8]; 16× MIC, 37 °C, colony counting): 52.32% | survival rate of mice (MDR A. veronii ACCC61732; 1 μmol/kg i.p. 0.5 h after infection): 83.33%

CC(C)[C@@H]1NC(=O)CNC(=O)[C@H](CC(N)=O)NC(=O)[C@H](CCCNC(=N)N)NC(=O)[C@H](Cc2ccc(O)cc2)NC(=O)[C@H](C(C)C)NC(=O)[C@@H](NC(=O)[C@@H](NC(=O)[C@H](CC(N)=O)NC(=O)[C@H](Cc2c[nH]c3ccccc23)NC(=O)[C@H](C)NC(=O)[C@H](Cc2ccccc2)NC(=O)CN)C(C)C)CSSC[C@@H](C(=O)N[C@@H](Cc2c[nH]cn2)C(=O)N[C@@H](CCCNC(=N)N)C(=O)N2CCC[C@H]2C(=O)N[C@@H](C)C(=O)N[C@@H](CC(N)=O)C(N)=O)NC(=O)[C@H](C(C)C)NC(=O)[C@H](CCCNC(=N)N)NC1=O [N6PNH2] (H-GFAWNVCVYRNGVRVCHRPAN-NH2; disulfide 7-16 (inferred))
MIC (A. veronii X-1-06909; A. veronii X-1-06909, broth dilution, 37 °C, 16–18 h, three experiments): 64 µg/mL | MIC (A. veronii X-1-06909; read-out: MIC): 26.49 µM | MIC ([1]; CMCC98001, read-out: MIC): >52.98 µM | MIC (E. coli CVCC1515; CVCC1515, read-out: MIC): 1.66 µM | MIC (E. coli CVCC1515; E. coli CVCC1515, broth dilution, 37 °C, 16–18 h, three experiments): 4 µg/mL | MIC (E. coli CVCC25922; E. coli CVCC25922, broth dilution, 37 °C, 16–18 h, three experiments): 8 µg/mL | MIC (E. coli CVCC25922; E. coli CVCC25922, broth dilution, 37 °C, 16–18 h, three experiments, read-out: MIC): 3.31 µM | MIC (Escherichia coli CVCC195; Escherichia coli CVCC195, broth dilution, 37 °C, 16–18 h, three experiments): 8 µg/mL | MIC (Escherichia coli CVCC195; [10]): 3.31 µM | MIC (S. enteritidis CVCC3377; CVCC3377, read-out: MIC): 0.83 µM | MIC (S. enteritidis CVCC3377; S. enteritidis CVCC3377, broth dilution, 37 °C, 16–18 h, three experiments): 2 µg/mL | MIC (S. pullorum CVCC1789; CVCC1789, read-out: MIC): 6.62 µM | MIC (S. pullorum CVCC1789; S. pullorum CVCC1789, broth dilution, 37 °C, 16–18 h, three experiments): 16 µg/mL | MIC (S. pullorum CVCC1809; S. pullorum CVCC1809, broth dilution, 37 °C, 16–18 h, three experiments): 8 µg/mL | MIC (S. pullorum CVCC1809; S. pullorum CVCC1809, broth dilution, 37 °C, 16–18 h, three experiments, read-out: MIC): 3.31 µM | MIC (S. pullorum CVCC533; CVCC533, read-out: MIC): 13.25 µM | MIC (S. pullorum CVCC533; S. pullorum CVCC533, broth dilution, 37 °C, 16–18 h, three experiments): 32 µg/mL | MIC [2]: >64 µg/mL | MIC (E. coli CVCCO157): 8 µg/mL | MIC (E. coli CVCCO157; read-out: MIC): 3.31 µM | time to completely kill A. veronii ACCC61732 (A. veronii ACCC61732 [3]): 2 h | PAE (A. veronii ACCC61732 [5]; 1× MIC): 0.52 ± 0.01 h | PAEs, range over 1×–4× MIC (A. veronii ACCC61732 [5]; 1× to 4× MIC): 0.52 to 0.68 h | PAE (A. veronii ACCC61732 [5]; 2× MIC): 0.62 ± 0.01 h | PAE (A. veronii ACCC61732 [5]; 4× MIC): 0.68 h and 0.68 ± 0.01 h | increase of MIC after 30 serial passages (A. veronii ACCC61732 [6]): three-fold | Permeability (PI-positive cells) (A. veronii ACCC61732 [9]; 1× MIC, 0.5 h): 0% | Permeability (PI-positive cells) (A. veronii ACCC61732 [9]; 1× MIC, 2 h): 2.11% | Permeability (PI-positive cells) (A. veronii ACCC61732 [9]; 2× MIC, 0.5 h): 0.68% | Permeability (PI-positive cells) (A. veronii ACCC61732 [9]; 2× MIC, 2 h): 1.35% | Permeability (PI-positive cells) (A. veronii ACCC61732 [9]; 4× MIC, 0.5 h): 0% | Permeability (PI-positive cells) (A. veronii ACCC61732 [9]; 4× MIC, 2 h): 1.23% | inhibition of mature biofilms [7]: 97.16% | bacteria in biofilm killed [8]; 8: 57.99% | bacteria in biofilm killed [8]; 16: 67.44% | survival rate of mice (MDR A. veronii ACCC61732; 5 μmol/kg i.p. 0.5 h after infection): 50%
